Measured values as given in patent publication US20250295664A1, “THERAPEUTIC COMBINATION OF KRAS G12C INHIBITOR AND TEAD INHIBITOR” (SANOFI, priority 2022, published 2025).

Legend:
Assay type in all cases: cell-based
[1] = test system: KRAS G12C mutant NSCLC cell line HOP-62; experiment: IC50 shift experiment, cell proliferation (Cell Titer Glo), 144 h; conditions: for IC50: Homo sapiens, TEAD inhibitor alone, 144 h, read-out: IC50 TEADi; for KRAS G12Ci No1 fold change vs 0.1 μM: IC50 shift of KRAS G12C inhibitor N°1, no TEADi vs TEAD inhibitor 0.1 μM; for KRAS G12Ci No1 fold change vs 1 μM: IC50 shift of KRAS G12C inhibitor N°1, no TEADi vs TEAD inhibitor 1 μM; for KRAS G12Ci No2 fold change vs 0.1 μM: IC50 shift of KRAS G12C inhibitor N°2, no TEADi vs TEAD inhibitor 0.1 μM; for KRAS G12Ci No2 fold change vs 1 μM: IC50 shift of KRAS G12C inhibitor N°2, no TEADi vs TEAD inhibitor 1 μM
Description: The KRAS G12C mutant NSCLC cell line HOP-62 was used for this study. Cells were seeded in 96 well plates at 1250 cells per well and incubated 24 hours at 37° C. and 5% CO2. The KRAS G12C inhibitors N°1 and N°2 were used at 10 concentrations and combined with TEAD inhibitors used at 2 concentrations. Compound dilution and distribution to cells was performed on the TECAN MCA384 robotic platform. […] Cell proliferation was measured using Cell Titer Glo from PROMEGA (luminescence). For each KRAS G12C inhibitor, IC50 values in these cell lines were determined in the absence or presence of TEAD inhibitors.

[2] = test system: HOP-62 KRAS G12C mutant NSCLC cells; experiment: Ray design combination experiment, cell proliferation (Cell Titer Glo), 96 h; conditions: potentiation of KRAS G12C inhibitor N°1 IC50 by the TEAD inhibitor at 370 nM, Ki = potentiation index IC50ai/IC50a
Description: (§1) The NSCLC cell line HOP62 which carries a KRASG12C mutation was used for this study. HO-P62 cells were seeded in 384 well plates at 300 cells per well and incubated 24 hours at 37° C. and 5% CO2. The KRAS G12C inhibitor N°1 used at 14 concentrations ranging from 10,000 nM to 0.006 nM was combined with TEAD inhibitors used at 18 concentrations ranging from 10,000 nM to 0.0001 nM, added to HOP-62 cells and incubated for 96 hours at 37° C. and 5% CO2. Compound dilution and distribution to cells was performed on the TECAN MCA384 robotic platform. Cell proliferation was measured using Cell Titer Glo from PROMEGA (luminescence).
Three independent experiments with triplicates per experiment were performed and analyzed using the combination analysis software Combo2Screen. TEAD inhibitors were defined as non-active in this cell line, their effect on the KRAS G12C inhibitor was determined as an effect of potentiation and was quantified using the potentiation index based on the following equation: […]

[3] = test system: H-2030 KRAS G12C mutant NSCLC cells; experiment: Ray design combination experiment, cell proliferation (Cell Titer Glo), 144 h; conditions: potentiation of KRAS G12C inhibitor N°1 IC50 by the TEAD inhibitor at 41 nM, Ki = potentiation index IC50ai/IC50a
Description: as §1, with “H-2030” for “HOP62”, “H-2030” for “HO-P62”, “250” for “300”, “H-2030” for “HOP-62”, “144” for “96”
Three independent experiments with triplicates/experiment were performed and analyzed using the combination analysis software Combo2Screen. TEAD inhibitors were defined as non-active in this cell line, their effect on the KRAS G12C inhibitor was determined as an effect of potentiation and was quantified using the potentiation index based on the following equation: […]

Compound	IC50 [1] [µM]	KRAS G12Ci No1 fold change vs 0.1 μM [1] [fold]	KRAS G12Ci No1 fold change vs 1 μM [1] [fold]	KRAS G12Ci No2 fold change vs 0.1 μM [1] [fold]	KRAS G12Ci No2 fold change vs 1 μM [1] [fold]	Mean fold potentiation 1/Ki [2] [fold]	Mean fold potentiation 1/Ki [3] [fold]
C=CC(=O)Nc1ccc2c(ccn2-c2ccc(C(F)(F)F)cc2)c1 [TEAD inhibitor N°3, N-(1-(4-(trifluoromethyl)phenyl)-1H-indol-5-yl) acrylamide]	> 10	6	7	9	8	–	–
C=CC(=O)Nc1ccc2c(c1)c(COC)cn2-c1ccc(C(F)(F)F)cc1 [TEAD inhibitor N°4, N-(3-(methoxymethyl)-1-(4-(trifluoromethyl)phenyl)-1H-indol-5-yl) acrylamide]	> 10	5	10	8	12	–	–
C=CC(=O)Nc1ccc(C)c(Oc2ccc(Cl)cc2)c1 [TEAD inhibitor N°1, N-(3-(4-chlorophenoxy)-4-methylphenyl) acrylamide, reference compound]	8.8	8	9	–	–	8	33
C=CC(=O)Nc1ccc2c(c1)C(O[C@H]1CC[C@H](C(F)(F)F)CC1)CC2 (relative stereo) [TEAD inhibitor N°6, N-(3-(((trans)-4-(trifluoromethyl)cyclohexyl)oxy)-2,3-dihydro-1H-inden-5-yl) acrylamide]	> 10	4	6	6	8	–	–
C=CC(=O)Nc1ccc2c(c1)C(Oc1ccc(C(F)(F)F)cc1)CC2 (stereo not shown) [TEAD inhibitor N°8, N-(3-(4-(trifluoromethyl)phenoxy)-2,3-dihydro-1H-inden-5-yl) acrylamide]	> 10	6	9	10	12	–	–
C=CC(=O)Nc1ccc2c(c1)C(Nc1ccc(F)c(F)c1)CC2 (stereo not shown) [TEAD inhibitor N°7, N-(3-((3,4-difluorophenyl)amino)-2,3-dihydro-1H-inden-5-yl) acrylamide]	> 10	6	13	9	21	–	–
C=CC(=O)Nc1ccc2c(c1)c(C)cn2Cc1cccc(C(F)(F)F)c1 [TEAD inhibitor N°5, N-(3-methyl-1-(3-(trifluoromethyl)benzyl)-1H-indol-5-yl) acrylamide]	> 10	4	7	8	13	–	–
C=CC(=O)Nc1ccc2c(c1)CCC2Nc1cccc(C(F)(F)F)c1 (stereo not shown) [TEAD inhibitor N°2, N-(1-((3-(trifluoromethyl)phenyl)amino)-2,3-dihydro-1H-inden-5-yl) acrylamide]	–	–	–	–	–	8	18
